Data as given in patent US20160250245A1, “Methods and Pharmaceutical Composition for the Treatment of Polyomavirus Infections” (INSERM (INSTITUT NATIONAL DE LA SANTÉ ET DE LA RECHERCHE …, priority 2013, published 2016).

Columns and labels:
BKV (Dunlop) = assay: BKV replication in Vero cell line, extracellular BKV DNA load by qPCR; type: cell-based, BK virus; conditions: Vero cells
Experimental: (§1) For each assay, one cell aliquot was thawed and cells cultured for three days in one 25 cm^2 culture flask. Cells were then trypsinized, washed, resuspended and seeded at 1×10^4 cells/well in […] in flat bottom 96-well microplates. After 24 h incubation, cells at 75% confluence were infected with 1×10^9 genomes per well in BK medium (199 medium with 2% FBS, 2% HEPES, 1% penicillin-streptomycin 10000 U/μg final concentration). After 4 h incubation (37° C., 5% CO2), medium was removed and replaced with 200 μL of fresh BK medium after four washes. 72 h later, medium was replaced with fresh BK medium with or without gemcitabine at the indicated final concentrations. After 48 h incubation, cell culture supernatants were harvested and frozen at −80° C.
(§2) Extracellular DNA was extracted from 100 μL frozen supernatants using the automated nucleic acids extractor Nuclisens Easymag (BioMérieux, Marcy l'Etoile, France) following the manufacturer's Generic 2.0.1 procedure. Extracts were resuspended in a final volume of 25 μL buffer 3.
(§3) To quantify extracellular BKV DNA load, a quantitative PCR (qPCR) was done using the following primers (Eurofins MWG Operon) and probe (Applied Biosystem, UK): […]
(§4) Reactions were performed in a total volume of 25 μl with 5 μL of DNA extract, […] TaqMan Universal PCR Master Mix (Applied Biosystems, Hoffmann La Roche, Meylan, France), 6.5 μL H2O, 2.5 μL of each primer at 30 μM and 1 μL of probe at 10 μM.
(§5) Amplification was performed using the Rotor-Gene 6000 (Corbett Life Science) with the following PCR program: 50° C., 2 min; denaturation at 95° C., 10 min; and 45 cycles of 95° C., 15 sec; 60° C., 60 sec. Quantification was calculated with an external calibration curve using BKV plasmid constructs.

Vero cell line = type: cell-based, Cercopithecus aethiops; conditions: Vero cell culture system
Experimental: as §1
(§6) Cytotoxicity was analyzed by two colorimetric assays using the “Cytotoxicity Detection Kit (LDH)” and “Cell proliferation ELISA, BrdU” (Roche Diagnostics, Meylan, France).
The quantity of LDH was measured in cell culture supernatants and cells from every wells used for the quantification of virus replication including infected and non-infected wells and in presence or not of gemcitabine at the end of the test period according to the manufacturer's protocol. Absorbance at 492 nm (sample) and at 620 nm (background) was recorded 30 min after addition of the reaction mixture. Medium alone served as blank. […]

BKV (Dunlop strain) = assay: BKV replication in RPTEC primary cells, extracellular BKV DNA load by qPCR; type: cell-based, BK virus
Experimental: (§7) For each assay, one cell aliquot containing 2×10^6 cells was thawed and cells were cultured for six days in one 75 cm^2 culture flask. Cells were then trypsinized, washed, resuspended and seeded at 5×10^4 cells/well in 1 ml medium in flat bottom 24-well collagen-coated microplates. After 48 h incubation, medium was replaced with fresh REBM base medium without grown factors and supplemented with inactivated fetal bovine serum (FBS Brazilian origin, Lonza) and penicillin-streptomycin 10000 U/μg to a final concentration of 2% and 1% respectively. 48 h later, cells at 95% confluence were infected with 1×10^9 genomes per well. After 4 h incubation (37° C., 5% CO2), medium was removed and replaced with 1 ml of fresh medium without grown factors after two washes with and without gemcitabine or cidofovir at the indicated concentrations. 72 h later, at day 3 of treatment, supernatants were harvested and frozen at −80° C. and medium was replaced with fresh medium without grown factors and with the indicated concentrations of gemcitabine or cidofovir. After 48 h incubation, at day 5 of treatment, cell culture supernatants were harvested and frozen at −80° C.
as §2, §3, §4, §5

RPTEC primary cells = assay: Cytotoxicity / cell growth by LDH activity in RPTEC primary cells; type: cell-based, human
Experimental: as §7, §6
The quantity of LDH was measured in cell culture supernatants and cells from every wells used for the quantification of virus replication including infected and non-infected wells and in presence or not of gemcitabine at the end of the test period according to the manufacturer's protocol. Absorbance at 492 nm (sample) and at 620 nm (background) was recorded 30 min after addition of the reaction mixture. Medium alone served as blank. Measure of LDH activity in culture supernatants was used to monitoring cell lysis and the activity in cell lysates to monitoring cell viability and mass at 72 and 120 h p.i

T antigen = assay: Immunofluorescence of T antigen expression in infected RPTEC cells; type: cell-based, BK virus; conditions: 5 days of treatment
Experimental: (§8) For each assay, one cell aliquot containing 2×10^6 cells was thawed and cells were cultured for six days in one 75 cm^2 culture flask. Cells were then trypsinized, washed, resuspended and seeded at 5×10^4 cells/well in 1 ml medium in flat bottom 24-well collagen-coated microplates. After 48 h incubation, medium was replaced with fresh REBM base medium without grown factors and supplemented with inactivated fetal bovine serum (FBS Brazilian origin, Lonza) and penicillin-streptomycin 10000 U/μg to a final concentration of 2% and 1% respectively. 48 h later, cells at 95% confluence were infected with 1×10^9 genomes per well. After 4 h incubation (37° C., 5% CO2), medium was removed and replaced with 1 ml of fresh medium without grown factors after two washes with and without gemcitabine or cidofovir at the indicated concentrations. 72 h later, at day 3 of treatment, supernatants were harvested and frozen at −80° C. and medium was replaced with fresh medium without grown factors and with the indicated concentrations of gemcitabine or cidofovir. After 48 h incubation, at day 5 of treatment, cell culture supernatants were harvested and frozen at −80° C. […]

VP-1 = assay: Immunofluorescence of VP-1 expression in infected RPTEC cells; type: cell-based, BK virus; conditions: 5 days of treatment
Experimental: as §8

SMILES | IC50 (BKV (Dunlop); Betapolyomavirus hominis, 48 h, BKV Dunlop, two days of treatment, read-out: IC50, inhibition of viral replication) [nM] | IC90 (BKV (Dunlop); Betapolyomavirus hominis, 48 h, BKV Dunlop, two days of treatment, read-out: IC90, inhibition of viral replication) [nM] | inhibition of viral replication (BKV (Dunlop); concentration as low as 10 nM, in two days) | IC50 specificity index (Vero cell line) | IC50 (BKV (Dunlop strain); Betapolyomavirus hominis, RPTEC, BKV Dunlop, read-out: IC50, inhibition of viral replication) [nM] | IC90 (BKV (Dunlop strain); Betapolyomavirus hominis, RPTEC, BKV Dunlop, read-out: IC90, inhibition of viral replication) [nM] | inhibitory effect on viral replication, 5 days versus 3 days of treatment (BKV (Dunlop strain); RPTEC) | concentrations repressing BKV replication (BKV (Dunlop strain); summary: two different cellular models, including primary renal epithelial cells) [nM] | toxicity (RPTEC primary cells) | effect on cellular growth (LDH) at higher concentrations (RPTEC primary cells; RPTEC, 50 nM range) | effect on cellular growth measured by the intracellular LDH activity (RPTEC primary cells; infected RPTEC, effective antiviral concentrations (up to 10 nM), day 5) | expression of the early protein antigen T (T antigen) | expression of the late capsid protein VP-1 (VP-1) | concentration range repressing BKV replication (BKV (Dunlop strain); RPTEC, same conditions as gemcitabine)
Nc1ccn(C2OC(CO)C(O)C2(F)F)c(=O)n1 (centres unmarked) [gemcitabine, 4-amino-1-[3,3-difluoro-4-hydroxy-5-(hydroxymethyl)tetrahydrofuran-2-yl]-1H-pyrimidin-2-one] | 1.5 to 2 | 2.5 to 5 | totally inhibited | ≥ 10 | ~10 | ~50 | higher after 5 days than after 3 days | ~10 | no toxicity was observed | seemed to slow down | could suppress the inhibitory effect of viral infection on the cellular growth | inhibited | inhibited | 
Nc1ccn(C[C@@H](CO)OCP(=O)(O)O)c(=O)n1 [cidofovir] |  |  |  |  |  |  |  |  |  |  |  |  |  | μM range
